Strand notation (5' to 3'): a small letter for the sugar, then the base; units joined by * are phosphorothioate-linked, units joined directly phosphodiester-linked; [ ] holds rarer units or linkages, { } end groups; capitals alone tell only the bases. e = 2'-O-(2-methoxyethyl) (MOE); [5mC] = 5-methylcytosine; d = 2'-deoxy (DNA)
What was measured:
human PKK mRNA = experiment: Human PKK mRNA in liver of human KLKB1 transgenic mice (Example 7); assay type: in vivo; conditions: transgenic mice
Procedure, shortened: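 Transgenic mice carrying a 37,390 bp human KLKB1 fragment dosed subcutaneously twice weekly for 3 weeks at 2.5, 5.0, 10 or 20 mg/kg/week; PBS controls. Liver harvested 48 h after the last dose. Human PKK mRNA measured by real-time PCR and expressed as % inhibition versus PBS.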

[1] = Tolerability / clinical observation of cynomolgus monkeys (Example 8); assay type: in vivo, cynomolgus monkey; conditions: primates, Example 8
Procedure, shortened: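 Cynomolgus monkeys received ISIS antisense oligonucleotides cross-reactive with the rhesus target sequence. Animals were checked at least once daily for signs of illness or distress, and animals in poor or moribund condition were flagged for further monitoring.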

[2] = Liver function markers in cynomolgus monkeys (Example 8); conditions: cynomolgus monkey plasma, 40 mg/kg sc
Protocol: Prior to the study, the monkeys were kept in quarantine for a 30-day period, during which the animals were observed daily for general health. The monkeys were 2-4 years old and weighed between 2 and 4 kg. Ten groups of four randomly assigned male cynomolgus monkeys each were injected subcutaneously with ISIS oligonucleotide or PBS. PBS solution or ISIS oligonucleotides at a dose of 40 mg/kg were administered initially with a loading regimen consisting of four doses on the first week of the study (days 1, 3, 5, and 7), followed by a maintenance regimen consisting of once weekly administration starting on Day 14 (weeks 2 to 13). Subcutaneous injections were performed in clock-wise rotations at 4 sites on the back; one site per dose. The injection sites were delineated by tattoo, while sedated using ketamine, and were separated by a minimum of 3 cm.
To evaluate the effect of ISIS oligonucleotides on hepatic function, the monkeys were fasted overnight. Approximately, 1.5 mL of blood samples were collected from all the study groups. Blood was collected in tubes without anticoagulant for serum separation. The tubes were kept at room temperature for a minimum of 90 min and then centrifuged at 3,000 rpm for 10 min. Levels of various liver function markers were measured using a Toshiba 120FR NEO chemistry analyzer (Toshiba Co., Japan).

[3] = Tail bleeding assay (Example 20); assay type: in vivo, mouse; conditions: BALB/c mice; for Bleeding: blood collected over 40 minutes
Protocol: Tail-bleeding was measured to observe whether treatment with ISIS 482584 causes excess bleeding or hemorrhage in mice.
Groups of 10 male BALB/c mice were treated with 10 mg/kg, 20 mg/kg, or 40 mg/kg of ISIS 482584, administered subcutaneously twice a week for 3 weeks (weekly doses of 20 mg/kg, 40 mg/kg, or 80 mg/kg). A control group of 8 BALB/c mice was treated with PBS, administered subcutaneously twice a week for 3 weeks.
Two days after the final treatment of ISIS oligonucleotides or PBS, mice were placed in a tail bleeding chamber. Mice were anesthetized in the chamber with isoflurane. Then, a small piece of tail (approximately 4 mm from the tip) was cut with sterile scissors. The cut tail was immediately placed in a 15 mL Falcon tube filled with approximately 10 mL of 0.9% NaCl buffer solution warmed to 37° C. The blood was collected over the course of 40 minutes. The saline filled tubes were weighed both before and after bleeding.

[4] = test system: basal vascular permeability; experiment: Combination of PKK and Factor 12 antisense oligonucleotides on basal vascular permeability (Example 16); assay type: in vivo, mouse; conditions: positive control: PBS + HOE-140 30 μg ip
Protocol: Mice were treated with varying doses of ISIS 410944, an antisense oligonucleotide targeting Factor 12, and ISIS 482584 in a basal vascular permeability model.
Group 1 consisted of 8 mice and was treated with PBS administered subcutaneously twice a week for 3 weeks. No other treatment was administered to Group 1 which served as a control group to measure the basal levels of vascular permeability.
Group 2 consisted of 4 mice and was treated with PBS administered subcutaneously twice a week for 3 weeks. At the end of the treatment period, the mice were intraperitoneally administered 30 μg of HOE-140. Group 2 served as a positive control for inhibition of basal vascular permeability.
Groups 3, 4, 5, 6, and 7 consisted of 8 mice each and were treated with 2.5 mg/kg, 5 mg/kg, 10 mg/kg, 20 mg/kg, or 40 mg/kg (corresponding to 5 mg/kg, 10 mg/kg, 20 mg/kg, 40 mg/kg, or 80 mg/kg per week), respectively of ISIS 482584 and ISIS 410944 each administered subcutaneously twice a week for 3 weeks. Groups 3-7 served as the experimental treatment groups for examining the effect of ISIS 410944 and ISIS 482584 on basal vascular permeability.
All the groups were then injected with 30 mg/kg of Evans Blue solution in the tail vein. The mice were sacrificed 30 min after the Evans Blue solution administration and colons, feet, ears, and intestines were harvested.
The harvested tissues from the feet, colon, intestines, and ears were placed in formamide solution overnight to leach out the Evans Blue dye. The formamide solution containing feet and ear tissue was heated to 55° C. and left overnight. Higher OD values are associated with higher levels of permeability.

Tes Ges mCes Aes Aes Gds Tds mCds Tds mCds Tds Tds Gds Gds mCds Aes Aes Aes mCes Ae [ISIS 546254]
human PKK mRNA inhibition (human PKK mRNA; 2.5 mg/kg/week s.c. twice a week for 3 weeks): 31%
human PKK mRNA inhibition (human PKK mRNA; 5.0 mg/kg/week s.c. twice a week for 3 weeks): 55%
human PKK mRNA inhibition (human PKK mRNA; 10 mg/kg/week s.c. twice a week for 3 weeks): 84%
human PKK mRNA inhibition (human PKK mRNA; 20 mg/kg/week s.c. twice a week for 3 weeks): 83%
tolerability in primates [1]: tolerable in primates
ALT [2]: 54 IU/L
AST [2]: 68 IU/L
Albumin [2]: 3.8 g/dL

ISIS 482584: 5-10-5 MOE gapmer targeting murine PKK, GGCATATTGGTTTTTGGAAT; SEQ ID NO: 2244 (antisense eG*eG*e[5mC]*eA*eT*dA*dT*dT*dG*dG*dT*dT*dT*dT*dT*eG*eG*eA*eA*eT)
Bleeding ([3]; 20 mg/kg/wk sc 3 weeks): 0.03 mL
Bleeding ([3]; 40 mg/kg/wk sc 3 weeks): 0.14 mL
Bleeding ([3]; 80 mg/kg/wk sc 3 weeks): 0.07 mL
tail bleeding ([3]; 10-40 mg/kg s.c. twice a week for 3 weeks): did not significantly affect bleeding

NC(N)=NCCC[C@@H](N)C(=O)N[C@@H](CCCN=C(N)N)C(=O)N1CCC[C@H]1C(=O)N1C[C@H](O)C[C@H]1C(=O)NCC(=O)N[C@@H](Cc1cccs1)C(=O)N[C@@H](CO)C(=O)N1Cc2ccccc2C[C@@H]1C(=O)N1[C@H](C(=O)N[C@@H](CCCN=C(N)N)C(=O)O)C[C@@H]2CCCC[C@@H]21 [HOE-140, Icatibant, reference compound]
OD600 nm of Evans Blue dye, Colon [4]: 0.14
OD600 nm of Evans Blue dye, Ears [4]: 0.008
OD600 nm of Evans Blue dye, Feet [4]: 0.04
OD600 nm of Evans Blue dye, Intestines [4]: 0.08
